{"source": "patent US20250000888A1", "about": "“METHODS OF TREATING MYELODYSPLASTIC SYNDROMES WITH DECITABINE AND CEDAZURIDINE” (priority 2021, published 2025)", "key": {"[1]": {"system": "intermediate or high-risk MDS patients age 60 or older", "details": "low-dose decitabine IV; BSC 8.5; cited from earlier work"}, "MDS patients [2]": {"system": "MDS patients", "details": "intention-to-treat; 15 mg/m^2 IV over 3 hours, every 8 hours for 3 days; BSC 14.9; cited from earlier work"}, "[3]": {"system": "LINE-1 (long interspersed nuclear element-1) methylation", "experiment": "Phase 3 trial pharmacodynamics: DNA demethylation by % LINE-1 methylation analysis", "format": "in vivo, human"}, "[4]": {"experiment": "Phase 3 randomized crossover trial: decitabine total exposure over 5 days (AUC) and plasma pharmacokinetics", "format": "in vivo, human", "details": "for AUC(0-t): human, plasma, intravenous, 20 mg/m^2/d, read-out: 5-Day Decitabine AUC0-24 LSM", "description": "A total of 118 patients was planned for this analysis to provide 90% power at the statistical significance level of 0.05, presuming the true ratio of geometric means is 1.0, the intrapatient coefficient of variation (CV) on an unlogged scale is 0.55, and the 90% confidence interval (CI) equivalence limits for the ratio of geometric means are 0.8 and 1.25. Assuming that 10% of patients would not be evaluable, 132 patients were planned to be randomized.\nAt least one of either day 1 or 5 decitabine AUC0-24 measurement during the IV decitabine cycle was required to be evaluable. […] Descriptive statistics were calculated for pharmacokinetic values.\nEffects of the sequence and cycle were evaluated."}, "[5]": {"system": "patients with MDS or CMML", "protocol": "Each treatment was given for the first 5 consecutive days of a 28-day cycle. […] Consistent with standard clinical care with parenteral DNMTi, cycles could be delayed or doses reduced if judged necessary for hematologic or nonhematologic recovery.\nEfficacy and safety endpoints were calculated using all data through final cutoff."}, "MDS patients [6]": {"system": "MDS patients", "details": "cited from earlier work; for Median survival: previous reports in clinical trials; for Overall response rate: reported in clinical studies"}, "patients with MDS": {"system": "patients with MDS", "details": "BSC arm 12; cited from earlier work"}}, "note": "Where two headings read alike, the source gives them in different places."}
{"smiles": "Nc1ncn([C@H]2C[C@H](O)[C@@H](CO)O2)c(=O)n1", "note": "[IV decitabine, 5-aza-2′-deoxycytidine]", "values": [{"measurement": "Overall survival (OS)", "setting": "[1]", "value": 10.1, "unit": "months"}, {"measurement": "Median survival", "setting": "MDS patients [2]", "value": 14.0, "unit": "months"}, {"measurement": "Max. % LINE-1 Demethylation LSM", "setting": "[3]; Cycle 1", "value": 14.019, "unit": "%"}, {"measurement": "Max. % LINE-1 Demethylation LSM", "setting": "[3]; Cycle 2", "value": 11.968, "unit": "%"}, {"measurement": "Peak concentrations, IV vs oral administration", "setting": "[4]; FIG. 2A", "value": "higher after IV vs oral"}, {"measurement": "Time at which peak decitabine plasma concentrations were detected", "setting": "[4]; after oral and IV therapy, except day 5 IV", "value": 1, "unit": "h"}, {"measurement": "Time at which peak decitabine plasma concentrations were attained", "setting": "[4]; day 5 after IV treatment", "value": 30, "unit": "min"}, {"measurement": "AUC(0-t)", "setting": "[4]; Primary endpoint, paired, cycles 1 and 2", "value": 865, "unit": "ng·h/mL"}, {"measurement": "AUC(0-t)", "setting": "[4]; Sensitivity, paired, includes data excluded from primary endpoint", "value": 870, "unit": "ng·h/mL"}, {"measurement": "AUC(0-t)", "setting": "[4]; Sensitivity, unpaired", "value": 866, "unit": "ng·h/mL"}, {"measurement": "Time plasma concentrations remained above the lower limit of quantification", "setting": "[4]; in most patients", "value": "up to 4 hours"}, {"measurement": "Grade ≥3 TEAE Anemia, %", "setting": "[5]; Cycles 1 and 2", "value": "(32) %"}, {"measurement": "Grade ≥3 TEAE Febrile neutropenia, %", "setting": "[5]; Cycles 1 and 2", "value": "(7) %"}, {"measurement": "Grade ≥3 TEAE Leukopenia, %", "setting": "[5]; Cycles 1 and 2", "value": "(14) %"}, {"measurement": "Grade ≥3 TEAE Neutropenia, %", "setting": "[5]; Cycles 1 and 2", "value": "(29) %"}, {"measurement": "Grade ≥3 TEAE Pneumonia, %", "setting": "[5]; Cycles 1 and 2", "value": "(5) %"}, {"measurement": "Grade ≥3 TEAE Thrombocytopenia, %", "setting": "[5]; Cycles 1 and 2", "value": "(32) %"}, {"measurement": "≥1 Grade ≥3 TEAE regardless of relation to treatment, %", "setting": "[5]; Cycles 1 and 2", "value": "(67) %"}, {"measurement": "≥1 TEAE regardless of relation to treatment, %", "setting": "[5]; Cycles 1 and 2", "value": 96, "unit": "%"}, {"measurement": "TEAE Anemia, %", "setting": "[5]; Cycles 1 and 2, any grade", "value": "(36) %"}, {"measurement": "TEAE Constipation, %", "setting": "[5]; Cycles 1 and 2, any grade", "value": "(20) %"}, {"measurement": "TEAE Decreased appetite, %", "setting": "[5]; Cycles 1 and 2, any grade", "value": "(5) %"}, {"measurement": "TEAE Diarrhea, %", "setting": "[5]; Cycles 1 and 2, any grade", "value": "(11) %"}, {"measurement": "TEAE Dyspnea, %", "setting": "[5]; Cycles 1 and 2, any grade", "value": "(10) %"}, {"measurement": "TEAE Fatigue, %", "setting": "[5]; Cycles 1 and 2, any grade", "value": "(17) %"}, {"measurement": "TEAE Febrile neutropenia, %", "setting": "[5]; Cycles 1 and 2, any grade", "value": "(7) %"}, {"measurement": "TEAE Headache, %", "setting": "[5]; Cycles 1 and 2, any grade", "value": "(14) %"}, {"measurement": "TEAE Nausea, %", "setting": "[5]; Cycles 1 and 2, any grade", "value": "(17) %"}, {"measurement": "TEAE Neutropenia, %", "setting": "[5]; Cycles 1 and 2, any grade", "value": "(34) %"}, {"measurement": "TEAE Thrombocytopenia, %", "setting": "[5]; Cycles 1 and 2, any grade", "value": "(39) %"}, {"measurement": "≥1 TEAE regardless of relation to treatment, %", "setting": "[5]; Cycles 1 and 2, listed as IV Decitabine", "value": "(96) %"}, {"measurement": "Treatment-related serious AE rate, recalculated", "setting": "[5]; first 2 cycles, one AE reassigned to IV decitabine given in cycle 1", "value": 4, "unit": "%"}, {"measurement": "Patients reporting ≥1 treatment-related serious AE", "setting": "[5]; first 2 treatment cycles", "value": 3, "unit": "%"}, {"measurement": "Treatment discontinuation due to an AE", "setting": "[5]; first 2 treatment cycles", "value": 1, "unit": "patient"}, {"measurement": "Deaths deemed related to study medication", "setting": "[5]; of 11 fatal serious AEs, oral: sepsis and pneumonia, IV: septic shock, pneumonia", "value": "three"}, {"measurement": "Median survival", "setting": "MDS patients [6]", "value": "14.0-19.4 months"}, {"measurement": "Overall response rate", "setting": "MDS patients [6]", "value": 32, "unit": "%"}]}
{"smiles": "Nc1ncn([C@@H]2O[C@H](CO)[C@@H](O)[C@H]2O)c(=O)n1", "note": "[azacitidine, 5-azacytidine]", "values": [{"measurement": "Median time to leukemic transformation or death", "setting": "patients with MDS", "value": 21, "unit": "months"}, {"measurement": "Median survival", "setting": "MDS patients [6]", "value": "12.0-24.5 months"}, {"measurement": "Overall response rate", "setting": "MDS patients [6]", "value": "44%-60%"}]}
